Legend:
[1] = test system: skin ulcer and/or bedsore animal model, db/db mice; assay: Skin ulcer healing in genetically-diabetic mice (db/db mice); type: in vivo, mouse; conditions: topical twice a day for 12 days; for Ulcer area, %: Day 13 relative to Day 1, mean ± standard error, control 70.0 ± 5.7
Description: Female BKS.Cg−+Lepr^db/+Lepr^db/Jcl mice (db/db mice, SPF; CLEA Japan, Inc.), genetically-diabetic mice, were used for the present study. After the removal of the dorsal hair, the skin covering an area of 1.5×1.5 cm centered on the dorsal median was excised using ophthalmic scissors under anesthesia to make a skin ulcer and/or bedsore animal model. Then the excised skin area (ulcer area) was covered with porous film dressing measuring 4×4 cm. The dosing preparation was applied to the ulcer area at a dosage volume of 0.1 mL per site. The application was performed twice a day for 12 days from the day of preparation of the ulcers. Compound B: (−)-7-{(2R,4aR,5R,7aR)-2-[(3S)-1,1-difluoro-3-methylpentyl]-2-hydroxy-6-oxooctahydrocyclopenta[b]pyran-5-yl}heptanoic acid at 10 or 30 micro-g/site was applied to the ulcer per time. The same volume of the vehicle (physiological saline solution containing 1% polysorbate 80: 1% PS80) was applied to the animals in the control group. The day of the start of the application was defined as Day 1. On the Day 1 and Day 13, the frontal edge of the epidermis or the regeneration epidermis of each ulcer was traced on a plastic sheet. The traced ulcer area was measured with an area-line meter. The ulcer area (%) on Day 13 was calculated on the basis of the ulcer area on Day 1. Group mean values with standard errors were calculated for ulcer area (%).

[2] = test system: epithelial tight junction, mouse intestine (jejunum mucosa); assay: Tissue conductance and dilution potentials in normal mouse intestines after Compound A in drinking water; type: in vivo; conditions: male C57BL/6 mice, 10 μM in drinking water for 7 to 14 days, jejunum mucosa in chamber, FIG. 1
Protocol: (Method) Male C57BL/6 mice (7-8 weeks old) were administered with 10 μM Compound A in the drinking water and fed standard diet for 7 to 14 days. During the period, the mice could drink the water freely. At the conclusion of this period, the mice were sacrificed and the intestines were removed. Approximately 5 cm sections were cut from tip of the jejunum. The intestine section was opened from ventral side, and then it was washed several Limes with Ringer solution. The mucosa of the intestine was carefully stripped from the serosa using forceps. The mucosa was mounted in a standard chamber (5 mm in diameter of exposed surface area) and bathed with buffer solution. Transepithelial short-circuit current (Isc) was measured and total tissue conductance was determined by measuring the current deflections resulting from a 1 mV/min transepithelial pulse and applying Ohm's law. When stable measurement of Isc was achieved, the buffer solution was replaced with potassium-free solution. The solution in the luminal bath were then replaced with the solution containing […], 150 mM LiCl, 150 mM KCl, 75 mM MgCl2 and 75 mM CaCl2, in turn, and dilution potentials in each solution were measured.

claudin-15 protein = assay: Expression of claudin proteins in mouse intestine (immunofluorescence staining); type: in vivo; conditions: 10 μM in drinking water for 7 to 14 days, immunofluorescence staining of frozen slices, FIG. 2
Protocol: (Method) Treatment of mice and removal of intestine were conducted by similar way mentioned above. The removed intestine was frozen in liquid nitrogen and frozen slices were prepared. Expressions and intracellular distribution of claudin-15 protein were determined with immunofluorescence staining. […] (Conclusion) Continuous administration of Compound A caused expression changes of tight junction proteins, such as the decrease of claudin-15 which induces changes of electrophysiological property of the tight junction. Decrease of the expression of claudin-15 in the tight junction resulted to enhance the tightness of the tight junction and strengthen the epithelial sheet against toxic substances.

SMILES | ulcer healing as compared to the control group ([1]; 10 and 30 micro-g/site) | Ulcer area, % ([1]; 10 micro-g/site) | Ulcer area, % ([1]; 30 micro-g/site) | dilution potential of univalent cations compared to no-treatment group [2] | total tissue conductance compared to no-treatment group [2] | expression of claudin-15 protein (claudin-15 protein)
CC[C@H](C)CC(F)(F)[C@@]1(O)CC[C@H]2[C@@H](CC(=O)[C@@H]2CCCCCCC(=O)O)O1 [Compound B, (−)-7-{(2R,4aR,5R,7aR)-2-[(3S)-1,1-difluoro-3-methylpentyl]-2-hydroxy-6-oxooctahydrocyclopenta[b]pyran-5-yl}heptanoic acid] | significantly accelerated the ulcer healing | 43.1 ± 4.2 % | 41.1 ± 3.1 % |  |  | 
CCCCC(F)(F)[C@@]1(O)CC[C@H]2[C@@H](CC(=O)[C@@H]2CCCCCCC(=O)O)O1 [Compound A, (−)-7-[(2R,4aR,5R,7aR)-2-(1,1-Difluoropentyl)-2-hydroxy-6-oxooctahydrocyclopenta[b]pyran-5-yl]heptanoic acid] |  |  |  | decrease | decrease | decreased
